Laboratory results: patent US9150574B2, “Enzyme inhibitor compounds” (Proximagen Limited, priority 2011, dated 2015)
pIC50: −log10 of the molar value.

Molecular target: T1, purified recombinantly expressed human SSAO (Homo sapiens, UniProt Q16853)
T1 construct: made in house
T1 sequence (Q16853 29-763 limits assumed): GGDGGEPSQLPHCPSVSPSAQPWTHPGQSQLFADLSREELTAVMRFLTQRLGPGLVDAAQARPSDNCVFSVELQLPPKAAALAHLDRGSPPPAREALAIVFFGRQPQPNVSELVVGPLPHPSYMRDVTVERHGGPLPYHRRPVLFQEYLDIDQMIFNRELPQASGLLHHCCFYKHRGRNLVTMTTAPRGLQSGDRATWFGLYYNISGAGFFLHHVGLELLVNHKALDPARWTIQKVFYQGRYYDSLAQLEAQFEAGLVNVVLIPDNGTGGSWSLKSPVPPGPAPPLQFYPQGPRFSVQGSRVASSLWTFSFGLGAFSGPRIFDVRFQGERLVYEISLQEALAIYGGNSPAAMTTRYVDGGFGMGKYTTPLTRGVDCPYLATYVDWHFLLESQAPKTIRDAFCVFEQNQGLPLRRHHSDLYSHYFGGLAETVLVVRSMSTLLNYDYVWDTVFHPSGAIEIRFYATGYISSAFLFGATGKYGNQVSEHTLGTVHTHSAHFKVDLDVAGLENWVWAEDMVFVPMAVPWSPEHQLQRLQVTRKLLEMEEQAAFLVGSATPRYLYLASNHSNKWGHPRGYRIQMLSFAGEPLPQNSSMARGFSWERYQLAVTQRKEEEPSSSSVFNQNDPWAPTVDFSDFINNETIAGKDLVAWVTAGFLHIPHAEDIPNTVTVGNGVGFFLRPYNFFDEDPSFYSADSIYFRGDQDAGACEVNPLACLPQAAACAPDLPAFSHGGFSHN
Experiment: SSAO enzyme inhibition assay (benzylamine substrate; hydrogen peroxide/HRP-coupled or 14C aldehyde detection)
Type: biochemical
Details: human recombinant SSAO, RT, benzylamine as substrate; read-out: SSAO inhibitory activity IC50
Method: All primary assays were performed at RT. with purified recombinantly expressed human SSAO. Enzyme was prepared essentially as described in Ohman et al. (Protein Expression and Purification 46 (2006) 321 331). In addition, secondary- and selectivity assays were performed using SSAO prepared from various tissues or purified rat recombinant SSAO. The enzyme activity was assayed with benzylamine as substrate by measuring either benzaldehyde production, using ^14C-labeled substrate, or by utilizing the production of hydrogen peroxide in a horseradish peroxidase (HRP) coupled reaction. Briefly, test compounds were dissolved in dimethyl sulfoxide (DMSO) to a concentration of 10 mM. Dose-response measurements were assayed by either creating 1:10 serial dilutions in DMSO to produce a 7 point curve or by making 1:3 serial dilutions in DMSO to produce 11 point curves. The top concentrations were adjusted depending on the potency of the compounds and subsequent dilution in reaction buffer yielded a final DMSO concentration ≦2%.
In a horseradish peroxidase (HRP) coupled reaction, hydrogen peroxide oxidation of 10-acetyl-3,7-dihydroxyphenoxazine produced resorufin, which is a highly fluorescent compound (Zhout and Panchuk-Voloshina. Analytical Biochemistry 253 (1997) 169-174; Amplex® Red Hydrogen Peroxide/peroxidase Assay kit, Invitrogen A22188). Enzyme and compounds in 50 mM sodium phosphate, pH 7.4 were set to pre-incubate in flat-bottomed microtiter plates for approximately 15 minutes before initiating the reaction by addition of a mixture of HRP, benzylamine and Amplex reagent. Benzylamine concentration was fixed at a concentration corresponding to the Michaelis constant, determined using standard procedures. Fluorescence intensity was then measured at several time points during 1-2 hours, exciting at 544 nm and reading the emission at 590 nm. For the human SSAO assay final concentrations of the reagents in the assay wells were: SSAO enzyme 1 μg/ml, benzylamine 100 μM, Amplex reagent 20 μM, HRP 0.1 U/mL and varying concentrations of test compound. The inhibition was measured as % decrease of the signal compared to a control without inhibitor (only diluted DMSO). The background signal from a sample containing no SSAO enzyme was subtracted from all data points. Data was fitted to a four parameter logistic model and IC50 values were calculated using the GraphPad Prism 4 or XLfit 4 programs.
SSAO activity was assayed using 14C-labeled benzylamine and analysed by measuring radioactive benzaldehyde. In a white 96-well optiplate (Packard), 20 μL of diluted test compound was pre-incubated at RT. with 20 μL SSAO enzyme for approximately 15 minutes with continuous agitation. All dilutions were made with PBS. The reaction was initiated by adding 20 μL of the benzylamine substrate solution containing [7-14C] Benzylamine hydrochloride (CFA589, GE Healthcare). The plate was incubated for 1 hour as above after which the reaction was stopped by acidification (10 μL 1 M HCl). Then 90 μL Micro Scint-E solution (Perkin-Elmer) was added to each well and the plate was continuously mixed for 15 minutes. Phase separation occurred instantly and activity was read in a Topcount scintillation counter (Perkin-Elmer). In the final reaction well, the human recombinant SSAO concentration was 10 μg/ml. In order to optimize sensitivity, the substrate concentration was decreased as compared to the HRP coupled assay in order to get a higher fraction of radioactive product. In the human SSAO assay, benzylamine concentration was 40 μM (0.2 μCi/mL). Data was analysed as above.

| pIC50 | Structure (SMILES) |
| --- | --- |
| 5.60 to 6.30 | CCCCN(C)c1nn(-c2ccc(Cl)cc2)c2cnccc12 [Example 28, N-Butyl-1-(4-chlorophenyl)-N-methyl-1H-pyrazolo[3,4-c]pyridin-3-amine] |
| 6.30 to 7.00 | FCc1ccc(-n2nc(C3CCOCC3)c3ccncc32)cc1 [Example 29, 1-[4-(Fluoromethyl)phenyl]-3-(oxan-4-yl)-1H-pyrazolo[3,4-c]pyridine] |
| 6.30 to 7.00 | Clc1ccc(-n2nc(C3CCN(Cc4cccnc4)CC3)c3ccncc32)cc1 [Example 30, 3-({4-[1-(4-Chlorophenyl)-1H-pyrazolo[3,4-c]pyridin-3-yl]piperidin-1-yl}methyl)pyridine] |
